Measurements from PubChem BioAssay (NCI).
Several values for one entry are separate records, joined by “and”; a condition that tells them apart may be missing. Equal entries are not always repeated.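 These data come from cells grown in 96-well plates and exposed to compound for 48 hours at five concentrations. GI50: concentration for 50% inhibition of growth. The concentration for full growth arrest is given as TGI.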

Tests used:
Assay in all cases: NCI-60 cell line screen, 48 h
[1] = tested on: A549 NSCLC
[2] = tested on: HT29 colon
[3] = tested on: K-562 leukemia
[4] = tested on: NCI-H23 lung
[5] = tested on: OVCAR-4 ovarian
[6] = tested on: OVCAR-5 ovarian
[7] = tested on: RXF 393 renal
[8] = tested on: U251 CNS
[9] = tested on: UACC-62 melanoma
[10] = tested on: DU-145 prostate

SMILES | TGI [1] | TGI [2] | TGI [3] | TGI [4] | TGI [5] | TGI [6] | TGI [7] | TGI [8] | TGI [9] | GI50 [1] [µM] | GI50 [3] [µM] | GI50 [4] [µM] | GI50 [6] [µM] | GI50 [7] [µM] | GI50 [9] [µM] | GI50 [2] [µM] | GI50 [5] [µM] | GI50 [8] | TGI [10] [µM] | GI50 [10] [µM]
COc1cc(OC)c(C(=O)c2cccs2)cc1N | > 100 µM | > 100 µM | > 100 µM | > 100 µM | > 100 µM | > 100 µM | > 100 µM | > 100 µM | > 100 µM |  |  |  |  |  |  |  |  |  |  | 
CN1CN(C2OC(CO)C(O)C2O)c2nc(N)[nH]c(=O)c21 (stereo not given) | > 100 µM | > 100 µM | > 100 µM | > 100 µM | > 100 µM | > 100 µM | > 100 µM | > 100 µM | > 100 µM |  |  |  |  |  |  |  |  |  |  | 
CCOC(=O)C(=O)Nc1nc2c(OCC)cccc2s1 | > 100 µM | > 100 µM | > 100 µM | > 100 µM | > 100 µM | > 100 µM | > 100 µM | > 100 µM | > 100 µM |  |  |  |  |  |  |  |  |  |  | 
O=S(=O)([O-])c1ccc(N=Cc2ccccc2[O-])cc1.O=S(=O)([O-])c1ccc(N=Cc2ccccc2[O-])cc1.[Co+2] | > 100 µM |  | > 100 µM | > 100 µM |  | > 100 µM | > 100 µM |  | > 100 µM | > 100 | > 100 | > 100 | > 100 | > 100 | 76.8 |  |  |  |  | 
CC(C)C12Cc3c(ccc4ccccc34)OC1(C)Oc1ccc3ccccc3c1C2 (stereo not given) | > 100 µM | > 100 µM | > 100 µM | > 100 µM | > 100 µM | > 100 µM | > 100 µM | > 100 µM | > 100 µM |  |  |  |  |  |  |  |  |  |  | 
N/N=C1\C(=O)N(Cc2ccccc2)C(=O)C1C(=O)NCc1ccccc1 (stereo not given) | > 100 µM | > 100 µM | > 100 µM | > 100 µM | > 100 µM | > 100 µM | > 100 µM | > 100 µM | > 100 µM |  |  |  |  |  |  |  |  |  |  | 
CSCS(=O)C[C@H](CO)NC(=O)/C=C/c1c(C)[nH]c(=O)[nH]c1=O (stereo not given in full) | 8.93 µM and 5.64 µM | 10 µM and 12.2 µM | 8.83 µM and 5.01 µM | 4.95 µM and 2.47 µM | 1.07 µM and 0.994 µM | 9.91 µM and 7.24 µM | 3.7 µM and 2.97 µM | 3.63 µM and 1.91 µM | 4.56 µM and 3.44 µM | 1.99 | 1.72 | 1.84 | 2.7 | 1.28 | 1.39 | 2.3 | 0.296 | 0.498 µM and 0.297 µM |  | 
Cc1ccc(-c2nc3ccccc3c(=O)n2NCC2(O)OCC(O)C(O)C2O)cc1 (stereo not given) | > 100 µM | > 100 µM | > 100 µM | > 100 µM | > 100 µM | > 100 µM | > 100 µM | > 100 µM | > 100 µM |  |  |  |  |  |  |  |  |  |  | 
O=c1c2ccc(S(=O)(=O)c3ccc4c(=O)n5c6ccccc6nc5c5cccc3c45)c3cccc(c32)c2nc3ccccc3n12 | > 100 µM | > 100 µM |  | > 100 µM |  | > 100 µM | 34.5 µM | 35.5 µM | > 100 µM |  |  |  |  |  |  |  |  |  | > 100 | 
COC(OC)c1cc2c(cc1C=O)OCO2 | > 100 µM | > 100 µM | > 100 µM | > 100 µM | > 100 µM | > 100 µM | > 100 µM | > 100 µM | > 100 µM |  |  |  |  |  |  |  |  |  |  | 
N.N.N.N.N.NC(=O)[O-].[Co+3].[I-] | > 100 µM | > 100 µM | > 100 µM | > 100 µM | > 100 µM | > 100 µM |  | > 100 µM | > 100 µM | > 100 | > 100 | > 100 | > 100 |  | > 100 | > 100 | > 100 | > 100 µM |  | 
Cc1cccc(-n2c(N)c(-c3nc4ccccc4[nH]3)sc2=S)c1 | 71.9 µM | 56.6 µM | > 100 µM | > 100 µM | > 100 µM | > 100 µM | 72.9 µM | 43.2 µM | 78.1 µM |  |  |  |  |  |  |  |  |  |  | 
CC(CC(=O)N1C(=O)C(C)(C)[C@@H](O)[C@H]1CC(C)C(Cl)(Cl)Cl)C(Cl)(Cl)Cl (stereo not given in full) | > 100 µM | > 100 µM | > 100 µM |  | > 100 µM |  |  | > 100 µM | > 100 µM |  |  |  |  |  |  |  |  |  |  | 
CCC[CH2][Sn]([CH2]CCC)([O]c1cccc2cccnc12)[O]c1cccc2cccnc12 | 2.92 µM | 1.72 µM | 0.523 µM | 0.52 µM | 0.46 µM |  |  | 0.368 µM | 0.421 µM | 1.26 | 0.0973 | 0.169 |  |  | 0.193 | 0.484 | 0.229 | 0.198 µM |  | 
CC1=CC(C)=NN=C(N)N1S(=O)(=O)c1cc(C)c(Cl)cc1SCc1ccccc1 | > 100 µM | > 100 µM | > 100 µM | > 100 µM | > 100 µM | > 100 µM |  | > 100 µM | > 100 µM | 31.3 | 9.22 | 14.2 | > 100 |  | 12.4 | 24.5 | 11.5 | 16.8 µM | > 100 | 73.4
CC(C)N(O)C(=N)c1ccccc1 | > 100 µM | > 100 µM |  | > 100 µM | > 100 µM | > 100 µM | > 100 µM | > 100 µM |  |  |  |  |  |  |  |  |  |  |  | 
COc1ccc(/C=C2\CN(C(=O)C(Cl)Cl)C/C(=C\c3ccc(OC)cc3)C2=O)cc1 | > 100 µM |  | > 100 µM | 4 µM | > 100 µM |  | 2.37 µM |  |  | 2.57 | 0.343 | 1.56 |  | 1.11 |  |  | 2.32 |  |  | 
Cc1n[nH]c(=S)n(C)c1=S | > 100 µM |  | > 100 µM | > 100 µM | > 100 µM | > 100 µM | > 100 µM | > 100 µM | > 100 µM |  |  |  |  |  |  |  |  |  |  | 
COc1cccc(/C=C/C(=O)c2ccc(SC)cc2)c1OC | 25.5 µM | 48.8 µM | 64.2 µM | 28.2 µM |  | 34.2 µM | 11.7 µM | 24 µM | 23.8 µM | 12.1 | 4.97 | 14.6 | 18.7 | 3.9 | 10.8 | 9.97 |  | 10.4 µM | 40.6 | 20.4
COc1cc(-c2nccc3cc(OC)c(OC)cc23)ccc1O | > 100 µM | > 100 µM | > 100 µM | > 100 µM | > 100 µM | > 100 µM |  | > 100 µM | > 100 µM |  |  |  |  |  |  |  |  |  |  | 
